Values quoted from earlier work as cited in US20100104622A1, “Ligand Targeted Nanocapsules for the delivery of RNAi and other Agents” (priority 2008, published 2010).

System: advanced stage melanoma
Conditions: melanoma patients

COc1cccc2c1C(=O)c1c(O)c3c(c(O)c1C2=O)C[C@@](O)(C(=O)CO)C[C@@H]3O[C@H]1C[C@H](N)[C@H](O)[C@H](C)O1 [Doxorubicin]
efficacy in advanced stage melanoma: essentially ineffective
